This is an account of results in patent publication US12173018B2, “Penicillin-binding protein inhibitors” (priority 2018, dated 2024).

Assay [1] has as its system engineered strain of Escherichia coli harboring CTX-M15. As to the kind of experiment: microbe, parasite or virus in culture. In kind it is cell-based. The following applies: Escherichia coli.
A further assay has as its target E. coli PBP2 (Escherichia coli (strain K12), UniProt P0AD65). As to the kind of experiment: E. coli PBP2 Bocillin-FL fluorescence polarization competition binding assay. As to conditions: fluorescence polarization competition binding with Bocillin-FL; read-out: E. coli K12 PBP2 Potency (EC50). The method, boiled down:
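Purified PBP2 at 1.5 μM final was preincubated with boronic acid inhibitor, then Bocillin-FL added to 0.1 μM final in Hepes pH 8.0/NaCl/glycerol buffer. Polarization was monitored 90 min; the concentration halving probe binding is reported as EC50.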

For the next assay, the target named is E. coli PBP1b (Escherichia coli (strain K12), UniProt P02919). Nature of the assay: Radioligand competition binding assay with 14C-labeled boronic acid probe, PBP1b. (Displacement assays read how much labelled ligand stays bound in the presence of the test substance.)
The mark [2] stands for this setting: read-out: Microbiological Activity (MIC in mg/L), E. coli DH5α/pLBII-CTX-M15, engineered strain producing CTX-M15.

Converted amounts (≈) assume the structure as drawn. Like-named read-outs stand apart in the source and are kept apart here.

E. coli PBP2, sequence (P0AD65 whole entry): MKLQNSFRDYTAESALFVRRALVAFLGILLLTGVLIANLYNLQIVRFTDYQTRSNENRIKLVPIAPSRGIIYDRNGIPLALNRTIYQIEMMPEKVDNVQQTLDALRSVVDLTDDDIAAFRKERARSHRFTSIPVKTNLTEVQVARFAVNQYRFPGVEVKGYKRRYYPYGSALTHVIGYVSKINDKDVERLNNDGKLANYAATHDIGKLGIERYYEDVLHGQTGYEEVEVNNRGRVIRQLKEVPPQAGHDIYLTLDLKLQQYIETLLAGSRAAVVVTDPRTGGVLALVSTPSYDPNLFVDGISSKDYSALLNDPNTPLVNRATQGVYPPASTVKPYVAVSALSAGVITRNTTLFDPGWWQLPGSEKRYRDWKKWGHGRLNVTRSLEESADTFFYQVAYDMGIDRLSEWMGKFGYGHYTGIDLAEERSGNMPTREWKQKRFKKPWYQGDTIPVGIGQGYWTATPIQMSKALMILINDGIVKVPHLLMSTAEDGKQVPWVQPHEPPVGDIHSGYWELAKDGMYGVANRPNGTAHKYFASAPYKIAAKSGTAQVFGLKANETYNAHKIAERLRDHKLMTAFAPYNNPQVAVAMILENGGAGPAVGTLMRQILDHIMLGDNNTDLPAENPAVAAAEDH
E. coli PBP1b, sequence (P02919 whole entry): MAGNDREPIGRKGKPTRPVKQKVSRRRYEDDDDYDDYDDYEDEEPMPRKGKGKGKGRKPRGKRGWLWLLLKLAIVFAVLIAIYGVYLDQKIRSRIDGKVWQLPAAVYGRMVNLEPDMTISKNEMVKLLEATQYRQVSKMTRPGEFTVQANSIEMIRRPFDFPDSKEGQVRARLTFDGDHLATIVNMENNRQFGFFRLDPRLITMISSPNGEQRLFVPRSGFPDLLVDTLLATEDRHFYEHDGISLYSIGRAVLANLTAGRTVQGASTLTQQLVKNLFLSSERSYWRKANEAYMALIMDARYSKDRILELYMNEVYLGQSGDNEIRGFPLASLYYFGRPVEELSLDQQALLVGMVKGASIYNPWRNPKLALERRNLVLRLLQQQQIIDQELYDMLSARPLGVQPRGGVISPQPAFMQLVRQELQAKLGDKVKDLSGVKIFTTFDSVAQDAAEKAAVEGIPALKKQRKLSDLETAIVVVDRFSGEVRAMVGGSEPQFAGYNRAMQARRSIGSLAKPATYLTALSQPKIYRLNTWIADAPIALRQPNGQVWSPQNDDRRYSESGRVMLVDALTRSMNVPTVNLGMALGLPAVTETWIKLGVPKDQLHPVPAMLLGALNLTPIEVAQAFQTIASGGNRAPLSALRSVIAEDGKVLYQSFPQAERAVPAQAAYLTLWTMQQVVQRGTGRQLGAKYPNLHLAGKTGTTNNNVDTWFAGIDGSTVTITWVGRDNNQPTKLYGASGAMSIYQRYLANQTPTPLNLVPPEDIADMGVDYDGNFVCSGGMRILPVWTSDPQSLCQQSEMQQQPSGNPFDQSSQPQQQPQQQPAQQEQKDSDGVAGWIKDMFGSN

`CCN1CCN(C(=O)NC(C(=O)N[C@H]2Cc3cc(F)cc(C(=O)O)c3OB2O)c2csc(N)n2)C(=O)C1=O` (stereo partly drawn) [Example 16, (3R)-3-(2-(2-aminothiazol-4-yl)-2-(4-ethyl-2,3-dioxopiperazine-1-carboxamido)acetamido)-6-fluoro-2-hydroxy-3,4-dihydro-2H-benzo[e][1,2]oxaborinine-8-carboxylic acid]: the MIC in assay [1] (setting [2]) was in the range of 32 to 64 mg/L (≈ 58.4 to 117 µM). For the same compound, the EC50 – broadly, the concentration at which the effect is half-maximal – at E. coli PBP2 was > 500 µM.

As to `CCN1CCN(C(=O)NC(C(=O)N[C@H]2Cc3cccc(C(=O)O)c3OB2O)c2ccc(O)cc2)C(=O)C1=O` (stereo partly drawn) [Example 27, (3R)-3-(2-(4-ethyl-2,3-dioxopiperazine-1-carboxamido)-2-(4-hydroxyphenyl)acetamido)-2-hydroxy-3,4-dihydro-2H-benzo[e][1,2]oxaborinine-8-carboxylic acid], the MIC in assay [1] (setting [2]) was in the range of 8 to 16 mg/L (≈ 15.3 to 30.5 µM). Moreover, the EC50 on E. coli PBP2 is > 500 µM.

`CCN1CCN(C(=O)NC(C(=O)N[C@H]2Cc3cccc(C(=O)O)c3OB2O)c2ccc(O)c(O)c2Cl)C(=O)C1=O` (stereo partly drawn) [Example 37, (3R)-3-(2-(2-chloro-3,4-dihydroxyphenyl)-2-(4-ethyl-2,3-dioxopiperazine-1-carboxamido)acetamido)-2-hydroxy-3,4-dihydro-2H-benzo[e][1,2]oxaborinine-8-carboxylic acid]: the MIC in assay [1] (setting [2]) is 8 to 16 mg/L (≈ 13.9 to 27.8 µM).

Consider `CCN1CCN(C(=O)NC(C(=O)N[C@H]2Cc3cccc(C(=O)O)c3OB2O)c2ccc(O)c(O)c2F)C(=O)C1=O` (some centres unmarked) [Example 70], for which the MIC in assay [1] (setting [2]) was 32 to 64 mg/L (≈ 57.3 to 115 µM).

Take `O=C(O)c1cccc2c1OB(O)[C@@H](NC(=O)C(NC(=O)N1CCN(CCF)C(=O)C1=O)c1ccc(O)c(O)c1Cl)C2` (stereo partly drawn) [Example 71, (3R)-3-(2-(2-chloro-3,4-dihydroxyphenyl)-2-(4-(2-fluoroethyl)-2,3-dioxopiperazine-1-carboxamido)acetamido)-2-hydroxy-3,4-dihydro-2H-benzo[e][1,2]oxaborinine-8-carboxylic acid]: in assay [1] (setting [2]), the MIC lay in the range of 8 to 16 mg/L (≈ 13.5 to 27 µM). At E. coli PBP1b, the EC50 is < 10 µM.

Consider `CCCN1CCN(C(=O)NC(C(=O)N[C@H]2Cc3cccc(C(=O)O)c3OB2O)c2ccc(O)c(O)c2Cl)C(=O)C1=O` (stereo partly drawn) [Example 82, (3R)-3-(2-(2-chloro-3,4-dihydroxyphenyl)-2-(2,3-dioxo-4-propylpiperazine-1-carboxamido)acetamido)-2-hydroxy-3,4-dihydro-2H-benzo[e][1,2]oxaborinine-8-carboxylic acid], for which, in assay [1] (setting [2]), the MIC lay within 32 to 64 mg/L (≈ 54.4 to 109 µM). Besides, at E. coli PBP1b, the EC50 was 10 to 100 µM.

On to `NS(=O)(=O)c1ccc(C(NC(=O)N2CCN(CCF)C(=O)C2=O)C(=O)N[C@H]2Cc3cccc(C(=O)O)c3OB2O)cc1` (stereo partly drawn) [Example 103, (3R)-3-(2-(4-(2-fluoroethyl)-2,3-dioxopiperazine-1-carboxamido)-2-(4-sulfamoylphenyl)acetamido)-2-hydroxy-3,4-dihydro-2H-benzo[e][1,2]oxaborinine-8-carboxylic acid], for which the EC50 on E. coli PBP2 is > 500 µM.

Turning to `CCN1CCN(C(=O)NC(C(=O)N[C@H]2Cc3cccc(C(=O)[O-])c3OB2O)c2ccc[n+](CC(N)=O)c2)C(=O)C1=O` (stereo partly drawn) [Example 107, (3R)-3-(2-(1-(2-amino-2-oxoethyl)pyridin-1-ium-3-yl)-2-(4-ethyl-2,3-dioxopiperazine-1-carboxamido)acetamido)-2-hydroxy-3,4-dihydro-2H-benzo[e][1,2]oxaborinine-8-carboxylate], the MIC in assay [1] (setting [2]) was in the range of 32 to 64 mg/L (≈ 56.5 to 113 µM). Besides, the EC50 on E. coli PBP1b was > 100 µM.

Take `CCN1CCN(C(=O)NC(C(=O)N[C@H]2Cc3cccc(C(=O)O)c3OB2O)c2ccc(B(O)O)cc2)C(=O)C1=O` (some centres unmarked) [Example 112]: in assay [1] (read-out: Microbiological Activity (MIC in mg/L), E. coli DH5α/pLBII-CTX-M15), the MIC was 32 to 64 mg/L (≈ 58 to 116 µM). For the same compound, the EC50 at E. coli PBP1b was > 100 µM.

Take `O=C(O)c1cccc2c1OB(O)[C@@H](NC(=O)C(NC(=O)N1CCN(CCF)C(=O)C1=O)c1ccc(B(O)O)cc1)C2` (stereo partly drawn) [Example 113, (3R)-3-(2-(4-boronophenyl)-2-(4-(2-fluoroethyl)-2,3-dioxopiperazine-1-carboxamido)acetamido)-2-hydroxy-3,4-dihydro-2H-benzo[e][1,2]oxaborinine-8-carboxylic acid]: the MIC in assay [1] (setting [2]) fell in the range of 32 to 64 mg/L (≈ 56.1 to 112 µM). At E. coli PBP1b, the EC50 is > 100 µM.

On to `CCN1CCN(C(=O)NC(C(=O)N[C@H]2Cc3cccc(C(=O)O)c3OB2O)c2cccs2)C(=O)C1=O` (stereo partly drawn) [Example 115, (3R)-3-(2-(4-ethyl-2,3-dioxopiperazine-1-carboxamido)-2-(thiophen-2-yl)acetamido)-2-hydroxy-3,4-dihydro-2H-benzo[e][1,2]oxaborinine-8-carboxylic acid], for which, in assay [1] (setting [2]), the MIC is 32 to 64 mg/L (≈ 62.2 to 124 µM). On E. coli PBP1b, the EC50 was > 100 µM.

Take `CCN1CCN(C(=O)NC(C(=O)N[C@H]2Cc3ccc(F)c(C(=O)O)c3OB2O)c2ccc(O)c(O)c2Cl)C(=O)C1=O` (stereo partly drawn) [Example 124, (3R)-3-(2-(2-chloro-3,4-dihydroxyphenyl)-2-(4-ethyl-2,3-dioxopiperazine-1-carboxamido)acetamido)-7-fluoro-2-hydroxy-3,4-dihydro-2H-benzo[e][1,2]oxaborinine-8-carboxylic acid]: the EC50 on E. coli PBP1b is < 10 µM.

Turning to `CCCN1CCN(C(=O)NC(C(=O)N[C@H]2Cc3ccc(F)c(C(=O)O)c3OB2O)c2ccc(O)c(O)c2Cl)C(=O)C1=O` (some centres unmarked) [Example 125], the half-maximal effective concentration (EC50) on E. coli PBP1b was < 10 µM.

As for `CCN1CCN(C(=O)NC(C(=O)N[C@H]2Cc3cccc(C(=O)O)c3OB2O)c2ncc(O)cc2F)C(=O)C1=O` (stereo partly drawn) [Example 135, (3R)-3-(2-(4-ethyl-2,3-dioxopiperazine-1-carboxamido)-2-(3-fluoro-5-hydroxypyridin-2-yl)acetamido)-2-hydroxy-3,4-dihydro-2H-benzo[e][1,2]oxaborinine-8-carboxylic acid], at E. coli PBP2, the EC50 was in the range of 30 to 500 µM.

`CCN1CCN(C(=O)NC(C(=O)N[C@H]2Cc3ccc(F)c(C(=O)O)c3OB2O)c2cc(O)c(O)cc2F)C(=O)C1=O` (stereo partly drawn) [Example 136, (3R)-3-(2-(4-ethyl-2,3-dioxopiperazine-1-carboxamido)-2-(2-fluoro-4,5-dihydroxyphenyl)acetamido)-7-fluoro-2-hydroxy-3,4-dihydro-2H-benzo[e][1,2]oxaborinine-8-carboxylic acid] had an EC50 at E. coli PBP1b of 10 to 100 µM.

As for `CCN1CCN(C(=O)NC(C(=O)N[C@H]2Cc3ccc(F)c(C(=O)O)c3OB2O)c2ncc(O)cc2F)C(=O)C1=O` (stereo partly drawn) [Example 145, (3R)-3-(2-(4-ethyl-2,3-dioxopiperazine-1-carboxamido)-2-(3-fluoro-5-hydroxypyridin-2-yl)acetamido)-7-fluoro-2-hydroxy-3,4-dihydro-2H-benzo[e][1,2]oxaborinine-8-carboxylic acid], the EC50 on E. coli PBP1b is > 100 µM.

Consider `CCN1CCN(C(=O)NC(C(=O)N[C@H]2Cc3cccc(C(=O)O)c3OB2O)c2ncc(O)cc2Cl)C(=O)C1=O` (stereo partly drawn) [Example 150, (3R)-3-(2-(4-ethyl-2,3-dioxopiperazine-1-carboxamido)-2-(3-chloro-5-hydroxypyridin-2-yl)acetamido)-2-hydroxy-3,4-dihydro-2H-benzo[e][1,2]oxaborinine-8-carboxylic acid], for which the EC50 on E. coli PBP2 is > 500 µM.

On to `CCN1CCN(C(=O)NC(C(=O)N[C@H]2Cc3ccc(F)c(C(=O)O)c3OB2O)c2ncc(O)cc2Cl)C(=O)C1=O` (stereo partly drawn) [Example 151, (3R)-3-(2-(3-chloro-5-hydroxypyridin-2-yl)-2-(4-ethyl-2,3-dioxopiperazine-1-carboxamido)acetamido)-7-fluoro-2-hydroxy-3,4-dihydro-2H-benzo[e][1,2]oxaborinine-8-carboxylic acid], for which, at E. coli PBP2, the EC50 was > 500 µM.
